This passage reports IC50 results from patent US20170253601A1, “Substituted Pyrrolidine Compounds” (EPIZYME, INC., priority 2014, published 2017).

A value given as a limit tells only on which side of the number the result lay.

The experiment addresses T1, human SMYD3 (Homo sapiens, UniProt Q9H7B4).
T1 construct: Expressed full-length human His-tagged SMYD3 protein was purified from cell paste; His6 (cleaved yes); TEV and SUMO cleavage sites (cleaved yes); made in house; host or cells: E. coli BL21 codonplus RIL
T1 sequence (Q9H7B4 1-428): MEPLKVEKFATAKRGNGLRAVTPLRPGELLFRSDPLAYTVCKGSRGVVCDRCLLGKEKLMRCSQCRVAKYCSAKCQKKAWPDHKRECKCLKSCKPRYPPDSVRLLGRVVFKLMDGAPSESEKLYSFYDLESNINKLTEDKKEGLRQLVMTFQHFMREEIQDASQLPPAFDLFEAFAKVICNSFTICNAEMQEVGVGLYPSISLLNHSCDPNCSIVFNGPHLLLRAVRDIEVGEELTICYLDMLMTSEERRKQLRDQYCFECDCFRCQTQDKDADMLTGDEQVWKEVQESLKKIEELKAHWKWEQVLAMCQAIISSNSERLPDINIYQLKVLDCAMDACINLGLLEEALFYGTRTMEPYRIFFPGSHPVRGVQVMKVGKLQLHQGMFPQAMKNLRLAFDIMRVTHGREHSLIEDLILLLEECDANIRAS
As to the kind of experiment: SMYD3 Biochemical Assay (3H-SAM, MEKK2 protein substrate, SPA). Conditions: Table 1; average of n = 1 to n = 50; read-out: SMYD3 Biochem IC50. The source says:
S-adenosylmethionine (SAM), S-adenosylhomocysteine (SAH), Tris, Tween20, dimethylsulfoxide (DMSO), bovine skin gelatin (BSG), and Tris(2-carboxyethyl)phosphine hydrochloride solution (TCEP) were purchased from Sigma-Aldrich at the highest level of purity possible. ^3H-SAM was purchase from American Radiolabeled Chemicals with a specific activity of 80 Ci/mmol. 384-well opaque white OptiPlates and SPA beads (Perkin Elmer, catalog # RPNQ0013) were purchased from PerkinElmer.
N-terminally GST-tagged MEKK2 (MAP3K2) protein corresponding to reference sequence AAF63496.3 was purchased from Life Technologies (catalog # PV4010). This protein was expressed in High Five insect cells and purified to >85% purity. Protein identity was confirmed by MS/MS analysis after proteolytic digestion. The protein sequence used was:
Full-length human SMYD3 isoform 1 (BAB86333) was inserted into a modified pET21b plasmid containing a His6 tag and TEV and SUMO cleavage sites. Because two common variants of SMYD3 exist in the population, site directed mutagenesis was subsequently performed to change amino acid 13 from an asparagine to a lysine, resulting in plasmid pEPZ533. A lysine at position 13 conforms to the more commonly occurring sequence (NP_001161212).
E. coli (BL21 codonplus RIL strain, Stratagene) were transformed with plasmid pEPZ553 by mixing competent cells and plasmid DNA and incubating on ice for 30 minutes followed by heat shock at 42° C. for 1 minute and cooling on ice for 2 minutes. Transformed cells were grown and selected on LB agar with 100 μg/mL ampicillin and 17 μg/mL chloramphenicol at 37° C. overnight. A single clone was used to inoculate 200 mL of LB medium with 100 μg/mL ampicillin and 17 μg/mL chloramphenicol and incubated at 37° C. on an orbital shaker at 180 rpm. Once in log growth, the culture was diluted 1:100 into 2 L of LB medium and grown until OD600 was about 0.3 after which the culture was incubated at 15° C. and 160 rpm. Once OD600 reached about 0.4, IPTG was added to a final concentration of 0.1 mM and the cells were grown overnight at 15° C. and 160 rpm. Cells were harvested by centrifugation at 8000 rpm, for 4 minutes at 4° C. and stored at −80° C. for purification.
Expressed full-length human His-tagged SMYD3 protein was purified from cell paste by Nickel affinity chromatography after equilibration of the resin with Buffer A (25 mM Tris, 200 mM NaCl, 5% glycerol, 5 mM β-mercaptoethanol, pH7.8). The column was washed with Buffer B (Buffer A plus 20 mM imidazole) and His-tagged SMYD3 was eluted with Buffer C (Buffer A plus 300 mM imidazole). The His tag, TEV and SUMO cleavage sites were removed generating native SMYD3 by addition of ULP1 protein at a ratio of 1:200 (ULP1:SMYD3). Imidazole was removed by dialysis overnight in Buffer A. The dialyzed solution was applied to a second Nickel column and the native SMYD3 protein was collected from the column flow-through. The flow-through was dialyzed in Buffer D (25 mM Tris, 5% glycerol, 5 mM β-mercaptoethanol, 50 mM NaCl, pH7.8) and ULP1 was removed using a Q sepharose fast flow column. SMYD3 was eluted in Buffer A and further purified using an S200 size-exclusion column equilibrated with Buffer A. SMYD3 was concentrated to 2 mg/mL with a final purity of 89%.
The assays were all performed in a buffer consisting of 25 mM Tris-Cl pH 8.0, 1 mM TCEP, 0.005% BSG, and 0.005% Tween 20, prepared on the day of use. Compounds in 100% DMSO (1 ul) were spotted into a 384-well white opaque OptiPlate using a Bravo automated liquid handling platform outfitted with a 384-channel head (Agilent Technologies). DMSO (1 ul) was added to Columns 11, 12, 23, 24, rows A-H for the maximum signal control and 1 ul of SAH, a known product and inhibitor of SMYD3, was added to columns 11, 12, 23, 24, rows I-P for the minimum signal control. A cocktail (40 ul) containing the SMYD3 enzyme was added by Multidrop Combi (Thermo-Fisher). […]
By IC50 is commonly meant the concentration that inhibits the measured activity by half. With `CN1C[C@H](NC(=O)c2cc(C3CC3)on2)[C@@H](c2ccccc2)C1` (racemic) [compound 18, (±)-trans-5-cyclopropyl-N-(1-methyl-4-phenylpyrrolidin-3-yl)isoxazole-3-carboxamide], the IC50 worked out at 50.4 µM.
Next, `NCCCC(=O)N1CC[C@@H](NC(=O)c2cc(C3CC3)on2)C1` [compound 30, (R)-N-(1-(4-amino-butanoyl)pyrrolidin-3-yl)-5-cyclopropyl-isoxazole-3-carboxamide]: greater than 10 µM.
Next, `CC1CN(C2CC2)CC1NC(=O)c1cc(C2CC2)on1` (stereo not drawn) [compound 23, 5-cyclopropyl-N-(1-cyclopropyl-4-methylpyrrolidin-3-yl)isoxazole-3-carboxamide]: 48.5 µM; `NCCCS(=O)(=O)N1CC[C@@H](NC(=O)c2cc(C3CC3)on2)C1` [compound 34, (R)-N-(1-((3-amino-propyl)sulfonyl)pyrrolidin-3-yl)-5-cyclopropyl-isoxazole-3-carboxamide]: 5.8 µM; `COc1cccc(C2C(NC(=O)c3cc(C4CC4)on3)CCN2C2CC2)c1` (stereo not drawn) [compound 16, 5-cyclopropyl-N-(1-cyclopropyl-2-(3-methoxy-phenyl)pyrrolidin-3-yl)isoxazole-3-carboxamide]: 77.4 µM.
On to `O=C(NC1CCN(C2CC2)C1c1ccc(F)c(F)c1)c1cc(C2CC2)on1` (stereo not drawn) [compound 8, 5-cyclopropyl-N-(1-cyclopropyl-2-(3,4-difluoro-phenyl)pyrrolidin-3-yl)isoxazole-3-carboxamide], for which the IC50 was determined as 12.4 µM.
As for `Cc1cc(N2CCC(NC(=O)c3cc(C4CC4)on3)C2=O)n(C)n1` (stereo not drawn) [compound 6, 5-cyclopropyl-N-(1-(1,3-dimethyl-1H-pyrazol-5-yl)-2-oxopyrrolidin-3-yl)isoxazole-3-carboxamide], the IC50 was greater than 200 µM.
For `C[C@H]1C[C@H](NC(=O)c2cc(C3CC3)on2)C(=O)N1c1cnn(C)c1` (racemic) [compound 20, (±)-trans 5-cyclopropyl-N-(5-methyl-1-(1-methyl-1H-pyrazol-4-yl)-2-oxopyrrolidin-3-yl)isoxazole-3-carboxamide], the IC50 was greater than 200 µM.
For `N[C@H]1CC[C@H](C(=O)N2CC[C@@H](NC(=O)c3cc(C4CC4)on3)C2)CC1` [compound 31, N-((R)-1-((1r,4r)-4-aminocyclohexane-1-carbonyl)pyrrolidin-3-yl)-5-cyclopropyl-isoxazole-3-carboxamide] the value was greater than 10 µM.
